Data set [1] deals with HI-HeLa cells. The data set is described as follows: Cytotoxicity in mock-infected HI-HeLa cells (XTT, antirhinoviral assay). The data set is classed as cell-based. How it is done:
(§1) In the Cell Protection Assay, the ability of compounds to protect cells against HRV infection was measured by the XTT dye reduction method. This method is described in Weislow, O. S., Kiser, R., Fine, D. L., Bader, J., Shoemaker, R. H., Boyd, M. R., J. Natl. Cancer Inst. 1989, 81, 577-586, the disclosure of which is incorporated herein by reference.
(§2) Infected or mock-infected cells were resuspended at 8×10^5 cells per mL and incubated with appropriate concentrations of compounds of formula I. Two days later, XTT/PMS was added to test plates, and the amount of formazan produced was quantified spectrophotometrically at 450/650 nm. […] The therapeutic index (TI) was calculated by dividing the CC50 by the EC50.
HRV stocks were propagated, and viral assays were performed in HI-HeLa cells (ATCC). Cells were grown in Minimal Essential Medium, available from Life Technologies, with 10% fetal bovine serum.
(Tetrazolium assays rely on reduction of a dye to a coloured formazan, in cell work by metabolically active cells.)

Data set [2] concerns the target T1, Recombinant Rhinovirus 3C protease serotype 14 (Human rhinovirus 14, UniProt P03303).
T1 construct: Recombinant Rhinovirus 3C proteases from serotypes 14, 16, and 2; made in house
The experiment in a line: biochemical.
Procedure: Stock solutions (50 mM, in DMSO) of various compounds were prepared; dilutions were in the same solvent. […] Assays contained 2% DMSO, 50 mM tris pH 7.6, 1 mM EDTA, a compound at the indicated concentrations, approximately 1 μM substrate, and 50-100 nM protease. […] The kobs/I values were obtained from reactions initiated by addition of enzyme rather than substrate. RVP activity is measured in the fluorescence resonance energy transfer assay. […] In the uncleavaed peptide, the EDANS fluorescence was quenched by the proximal DABCYL moiety. When the peptide was cleaved, the quenching was relieved, and activity was measured as an increase in fluorescence signal.
The data in the column designated kobs/I was measured from progress curves enzyme start experiments.

The subject of data set [3] is HRV serotype-14. The data set is described as follows: Antirhinoviral HI-HeLa cell culture assay (XTT cell protection), HRV-14. Particulars: HRV serotype-14, HI-HeLa cells, m.o.i. 0.13, two days, XTT; read-out: EC50. It is filed as cell-based, human rhinovirus. How it is done:
as §1, §2
All strains of human rhinovirus (HRV) for use in this assay were purchased from American Type Culture Collection (ATCC) except for HRV serotype-14, which was produced from the infectious cDNA clone constructed and supplied to Applicants by Dr. Robert Rueckert at the Institute for Molecular Virology, University of Wisconsin, Madison, Wis. HRV stocks were propagated, and viral assays were performed in HI-HeLa cells (ATCC). Cells were grown in Minimal Essential Medium, available from Life Technologies, with 10% fetal bovine serum.
The compounds were tested against control compounds WIN 51711, WIN 52084, and WIN 54954, all obtained from Sterling-Winthrop Pharmaceuticals, and control compound Pirodavir, obtained from Janssen Pharmaceuticals. Antiviral data obtained for the test compounds are shown in Table 2 where all data are for HRV serotype-14 unless otherwise noted in parentheses.

Where [4] appears, read: mock-infected HI-HeLa cells, line for HRV serotype-14, read-out: CC50.
Where [5] appears, read: mock-infected HI-HeLa cells, line for HRV serotype 2, read-out: CC50.
Where [6] appears, read: RVP serotype-14, progress curves, enzyme start experiments.

Read-outs that look alike come from different tables or passages of the source. Bounds are passed on as bounds.

T1 sequence (P03303 1538-1719): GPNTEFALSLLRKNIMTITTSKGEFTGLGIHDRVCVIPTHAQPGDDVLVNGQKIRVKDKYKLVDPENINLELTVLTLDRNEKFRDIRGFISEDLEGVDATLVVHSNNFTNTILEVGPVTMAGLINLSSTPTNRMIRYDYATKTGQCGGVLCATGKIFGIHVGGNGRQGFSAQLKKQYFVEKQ

Broadly, the CC50 is the concentration that lowers cell viability or growth by half. On to `CCOC(=O)/C=C/C(CCC(N)=O)NC(=O)C(CC(=O)C(CC(C)C)NC(=O)OCc1ccccc1)Cc1ccccc1` [Compound 1, Ethyl-3-(CBZ-L-LeuΨ[COCH2]-L-Phe-L-Gln)-E-Propenoate], for which, in data set [1] (setting [4]), the CC50 is greater than 320 µM.

For `CCOC(=O)/C=C/[C@H](CCC(N)=O)NC(=O)[C@@H](CC(=O)[C@@H](NC(=O)SCC)C(C)C)Cc1ccc(C)cc1` [Compound 10, Ethyl-3-(EtSCO-L-ValΨ[COCH2]-L-(p-CH3)Phe-L-Gln)-E-Propenoate], in data set [1] (setting [5]), the CC50 is greater than 1 µM. The kobs/I in data set [2] was 440,000 M^−1sec^−1.

In the case of `CCOC(=O)/C=C/C(CCC(N)=O)NC(=O)C(CC(=O)C(NC(=O)SC1CCCC1)C(C)C)Cc1ccc(C)cc1` [Compound 11, Ethyl-3-(CyPentylSCO-L-ValΨ[COCH2]-L-(p-CH3)Phe-L-Gln)-E-Propenoate], the CC50 was greater than 3 µM in data set [1] (mock-infected HI-HeLa cells, line for HRV serotype 1A, read-out: CC50); greater than 3 µM in data set [1] (setting [5]); greater than 3 µM in data set [1] (mock-infected HI-HeLa cells, line for HRV serotype 10, read-out: CC50); greater than 3 µM in data set [1] (mock-infected HI-HeLa cells, line for HRV serotype 16, read-out: CC50); greater than 3 µM in data set [1] (mock-infected HI-HeLa cells, line for HRV serotype 39, read-out: CC50). For the same compound, the kobs/I in data set [2] is given as 850,000 M^−1sec^−1.

The term EC50 denotes the concentration at which the effect is half-maximal. For the compound `CCOC(=O)/C=C/C(CCC(N)=O)NC(=O)C(CC(=O)C(Cc1ccccc1)NC(=O)SC1CCCC1)Cc1ccc(C)cc1` [Compound 12, Ethyl-3-(CyPentylSCO-L-PheΨ[COCH2]-L-(p-CH3)Phe-L-Gln)-E-Propenoate], in data set [3], the EC50 amounted to 0.14 µM. In addition, in data set [1] (setting [4]), the CC50 was greater than 1 µM. Further, in data set [2] (setting [6]), the kobs/I is given as 404,000 M^−1sec^−1.

Consider `CCOC(=O)/C=C/[C@H](CCC(N)=O)NC(=O)[C@@H](CC(=O)[C@@H](NC(=O)SCC)C(C)C)Cc1ccc(F)cc1` [Compound 13, Ethyl-3-(EtSCO-L-ValΨ[COCH2]-L-(p-F)Phe-L-Gln)-E-Propenoate], for which, in data set [1] (setting [4]), the cytotoxic concentration (CC50) is greater than 3 µM.

Regarding `CCOC(=O)/C=C/[C@H](CCC(N)=O)NC(=O)[C@@H](CC(=O)[C@@H](NC(=O)SCC)C(C)C)Cc1ccc(C(F)(F)F)cc1` [Compound 15, Ethyl-3-(EtSCO-L-ValΨ[COCH2]-L-(p-CF3)Phe-L-Gln)-E-Propenoate], the EC50 in data set [3] was determined as 0.063 µM. The CC50 in data set [1] (setting [4]) was greater than 1 µM. Besides, the kobs/I in data set [2] (setting [6]) is reported as 127,000 M^−1sec^−1.

Turning to `CCOC(=O)/C=C/C(CCC(N)=O)NC(=O)C(CC(=O)C(Cc1ccccc1)NC(=O)SC1CCCC1)Cc1ccc(F)cc1` [Compound 18, Ethyl-3-(CyPentylSCO-L-PheΨ[COCH2]-L-(p-F)Phe-L-Gln)-E-Propenoate], the concentration for a half-maximal effect (EC50) in data set [3] was determined as 0.48 µM. Moreover, in data set [1] (setting [4]), the CC50 is greater than 3 µM. Moreover, the kobs/I in data set [2] (setting [6]) is 127,400 M^−1sec^−1.

Consider `CCOC(=O)/C=C/C(CCC(N)=O)NC(=O)C(CC(=O)C(NC(=O)CC1CCCC1)C(C)C)Cc1ccc(C)cc1` (stereo not drawn) [Compound 23], for which the EC50 in data set [3] amounted to 20.9 µM. This compound yielded a CC50 in data set [1] greater than 10 µM. The kobs/I in data set [2] (setting [6]) is on record as 36,500 M^−1sec^−1.

Regarding `Cc1cc(CCCCCCCOc2ccc(C3=NCCO3)cc2)on1` [WIN 51711, reference compound], the EC50 in data set [3] stood at 0.78 µM. Further, the CC50 in data set [1] (setting [4]) is greater than 60 µM.

`Cc1cc(CCCCCCCOc2ccc(C3=N[C@@H](C)CO3)cc2)on1` [WIN 52084, reference compound]: in data set [3], the EC50 stood at 0.07 µM. For the same compound, the CC50 in data set [1] (setting [4]) was greater than 10 µM.

Regarding “Ethyl-3-(CyPentylSCO-L-CyhexΨ[COCH2]-L-(p-F)Phe-L-Gln)-E-Propenoate [Compound 24]”, the CC50 in data set [1] (setting [4]) was greater than 3 µM.

(Values after US20040072907A1, “Antipicornaviral compounds, compositions containing them, and methods for their use” (priority 1997, published 2004).)
